Data as given in patent US4895937A, “5-ioso-2-pyrimidinone nucleoside” (The Research Foundation of State University of New York, priority 1988, dated 1990).

What was measured:
HSV-2 = test: Viral inhibition, HSV-2 (Example 7, method of Example 5); format: cell-based, herpes simplex type 2; conditions: Human alphaherpesvirus 2
Method: (§1) In accordance with the present invention, 1-(2-Deoxy-β-D-ribofuranosyl)-5-(methylmercapto)-2-pyrimidinone is prepared essentially in accordance with the procedure set forth in "Snythesis and Antiviral Activity of 1-(2-Deoxy-β-D-ribofuranosyl)-5-(methylmercapto)-2-pyrimidinone" by Schroeder and Bardos and Cheng, Volume 24, page 109, January 1981. HeLa cells were infected in 1640 RPMI medium with herpes simplex type 1 (HSV-1) and independently with herpes simplex type 2 (HSV-2) virus at a multiplicity of 5 to 10 plaque forming units per cell. The composition of 1640 RPMI medium is reported in "Biological Activity of 5 Ethyl, 5 Propyl, and 5 Vinyl 2'-Deoxyuridine" by Cheng et al published in Antimicrobial Agents and Chemotherapy, Volume 10, beginning at page 119 (1976). 1640 RPMI medium is commercially available from Gibco Company, Grand Island, N.Y. After 1 hour, virus absorption, the drugs were added. Resulting cultures were analyzed for virus titer at 24 hours post infection a described in the procedure set forth in "Biological Activity of 5-Ethyl, 5-Propyl and 5-Vinyl 2'-uridine" by Cheng et al. The results are set forth in Table 2. The numbers set forth in Table 2 show the number of plaque forming units in the control which contained no methylmercapto compound and the number of units at concentrations of 100, 200 and 400 micromoles of the methylmercapto compound. The results clearly indicate substantial decrease in the number of plaque forming units in the presence of 1-(2-Deoxy-β-D-ribofuranosyl)-5-(methylmercapto)-2-pyrimidinone.
(§2) The above described methyl compound was tested for viral inhibition substantially in accordance with the method of Example 5 except that the concentrations were 50 and 100 micromolar.

[1] = molecular target: thymidine kinase extracted from cells infected with herpes simplex 1 virus (Human alphaherpesvirus 1 strain 17, UniProt P0DTH5); test: Binding affinity with thymidine kinase extracted from cells infected with herpes simplex 1 virus (Example 6); conditions: herpes simplex 1 virus infected cells
thymidine kinase extracted from cells infected with herpes simplex 1 virus, sequence (P0DTH5 whole entry): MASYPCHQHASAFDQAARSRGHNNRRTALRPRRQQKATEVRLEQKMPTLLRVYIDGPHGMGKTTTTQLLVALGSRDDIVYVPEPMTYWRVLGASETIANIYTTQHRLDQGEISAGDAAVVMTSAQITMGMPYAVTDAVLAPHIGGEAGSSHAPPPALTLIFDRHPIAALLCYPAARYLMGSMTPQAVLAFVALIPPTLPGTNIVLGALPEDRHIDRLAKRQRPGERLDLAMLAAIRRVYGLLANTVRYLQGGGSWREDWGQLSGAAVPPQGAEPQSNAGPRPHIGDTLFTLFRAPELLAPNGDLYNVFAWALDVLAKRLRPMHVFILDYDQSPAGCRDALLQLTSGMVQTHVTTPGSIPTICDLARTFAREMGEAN
Method: (§3) The methylmercapto composition, as described in Example 5. was tested for binding affinity with thymidine kinase from various sources. Viruses which induce the production of thymidine kinase, induce thymidine kinase specific to the virus. […] It is believed that the compound of the invention, in order to become active in inhibiting the replication of the virus, must become phosphorylated. For such phosphorylation to occur, the thymidine kinase must first bind to the compound. Since binding with thymidine kinase produced by the virus is much more efficient and effective than binding with thymidine kinase from other sources, phosphorylation of the compound occurs more rapidly in the presence of active viruses producing thymidine kinase. The compound, activated by phosphorylation, then is able to interfere with replication of the virus.

HSV-1(Kos) = test: Virus titer in HSV-1 infected HeLa cells, 24 hours post infection (Example 5); format: cell-based, herpes simplex type 1; conditions: control 1.5 × 10^7
Method: as §1

HSV-2 (333) = test: Virus titer in HSV-2 infected HeLa cells, 24 hours post infection (Example 5); format: cell-based, herpes simplex type 2; conditions: control 1.2 × 10^7
Method: as §1

HSV-1 = test: Viral inhibition, HSV-1 (Example 7, method of Example 5); format: cell-based, herpes simplex type 1; conditions: Human alphaherpesvirus 1
Method: as §1, §2

[2] = molecular target: thymidine kinase extracted from Varicella zoster virus infected cells (Human herpesvirus 3 strain Dumas, UniProt P09250); test: Binding affinity with thymidine kinase from Varicella zoster virus infected cells (Example 6)
thymidine kinase extracted from Varicella zoster virus infected cells, sequence (P09250 whole entry, looked up): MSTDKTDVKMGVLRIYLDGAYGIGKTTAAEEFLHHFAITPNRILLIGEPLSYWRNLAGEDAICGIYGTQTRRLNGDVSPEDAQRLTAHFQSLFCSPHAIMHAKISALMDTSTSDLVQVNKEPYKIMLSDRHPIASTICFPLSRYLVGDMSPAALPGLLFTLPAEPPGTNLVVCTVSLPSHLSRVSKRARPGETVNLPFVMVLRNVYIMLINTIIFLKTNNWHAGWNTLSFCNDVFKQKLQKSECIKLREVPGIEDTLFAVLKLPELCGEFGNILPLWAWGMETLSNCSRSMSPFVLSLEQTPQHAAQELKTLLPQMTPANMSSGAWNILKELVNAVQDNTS
Method: as §3

[3] = tested on: thymidine kinase extracted from human cells; test: Binding affinity with thymidine kinase extracted from human cells (Example 6)
Method: as §3

[4] = 50 micromolar, vs untreated control

SMILES: CSc1cnc(=O)n([C@H]2C[C@H](O)[C@@H](CO)O2)c1 [methylmercapto compound, 1-(2-Deoxy-β-D-ribofuranosyl)-5-(methylmercapto)-2-pyrimidinone]
- inhibition at 50 µM (HSV-2; [4]): 57.2%
- inhibition at 100 µM (HSV-2; 100 micromolar): 79.3%
- binding affinity with thymidine kinase [1]: great binding affinity
- plaque-forming units/mL, HSV-1(Kos) (HSV-1(Kos); 100 μM): 6.4 × 10^7 plaque-forming units/mL
- plaque-forming units/mL, HSV-1(Kos) (HSV-1(Kos); 200 μM): 1.7 × 10^6 plaque-forming units/mL
- plaque-forming units/mL, HSV-1(Kos) (HSV-1(Kos); 400 μM): 3.4 × 10^5 plaque-forming units/mL
- plaque-forming units/mL, HSV-2 (333) (HSV-2 (333); 100 μM): 1.3 × 10^7 plaque-forming units/mL
- plaque-forming units/mL, HSV-2 (333) (HSV-2 (333); 200 μM): 3.1 × 10^6 plaque-forming units/mL
- plaque-forming units/mL, HSV-2 (333) (HSV-2 (333); 400 μM): 3.2 × 10^5 plaque-forming units/mL
- inhibition at 50 µM (HSV-1; [4]): 41.1%
- inhibition at 100 µM (HSV-1; 100 micromolar): 83.8%
- binding affinity with thymidine kinase [2]: great binding affinity
- binding affinity with thymidine kinase [3]: little binding affinity
